≈ marks a conversion by molar mass, not a printed value. Calls of active or inactive are those of the source. No cut-off for these calls is given here.
Tests used:
[1] = system: Human immunodeficiency virus; assay: Antiviral activity against HIV infected in human MT4 cells assessed as inhibition of virus-induced cytopathogenicity by MTT assay; format: functional, organism-based
[2] = system: Pseudomonas aeruginosa; assay: Antibacterial activity against Pseudomonas aeruginosa ATCC 27853 after overnight incubation by twofold broth dilution technique; format: functional
[3] = system: Escherichia coli; assay: Antibacterial activity against Escherichia coli ATCC 25922 after overnight incubation by twofold broth dilution technique; format: functional
[4] = system: Streptococcus pneumoniae; assay: Antibacterial activity against Streptococcus pneumoniae expressing PenR gene after overnight incubation by twofold broth dilution technique in presence of 2.5% blood; format: functional
[5] = system: Haemophilus influenzae; assay: Antibacterial activity against Haemophilus influenzae ATCC 31517 after overnight incubation by twofold broth dilution technique; format: functional
[6] = system: Streptococcus pneumoniae; assay: Antibacterial activity against Streptococcus pneumoniae expressing PenR gene after overnight incubation by twofold broth dilution technique; format: functional
[7] = system: Enterococcus faecium; assay: Antibacterial activity against Enterococcus faecium expressing VanA gene after overnight incubation by twofold broth dilution technique; format: functional
[8] = system: Streptococcus pneumoniae; assay: Antibacterial activity against Streptococcus pneumoniae ATCC 49619 after overnight incubation by twofold broth dilution technique; format: functional
[9] = system: Enterococcus faecalis; assay: Antibacterial activity against Enterococcus faecalis ATCC 29212 expressing VanS gene after overnight incubation by twofold broth dilution technique; format: functional
[10] = system: Staphylococcus aureus; assay: Antibacterial activity against Staphylococcus aureus after overnight incubation by twofold broth dilution technique; format: functional
[11] = system: Staphylococcus aureus; assay: Antibacterial activity against Staphylococcus aureus ATCC 25923 after overnight incubation by twofold broth dilution technique in presence of 50% human serum; format: functional
[12] = system: Staphylococcus aureus; assay: Antibacterial activity against Staphylococcus aureus ATCC 25923 after overnight incubation by twofold broth dilution technique; format: functional
[13] = system: Staphylococcus aureus; assay: Antibacterial activity against Staphylococcus aureus ATCC 25923 after overnight incubation by twofold broth dilution technique in presence of 10% human serum; format: functional
[14] = system: Staphylococcus aureus; assay: Antibacterial activity against Staphylococcus aureus ATCC 13709 after overnight incubation by twofold broth dilution technique; format: functional
[15] = system: Staphylococcus aureus; assay: Antibacterial activity against methicillin-resistant Staphylococcus aureus after overnight incubation by twofold broth dilution technique; format: functional

| Structure (SMILES) | inhibition [1] | MIC [2] [µg/mL] | MIC [3] [µg/mL] | MIC [4] [µg/mL] | MIC [5] [µg/mL] | MIC [6] [µg/mL] | MIC [7] [µg/mL] | MIC [8] [µg/mL] | MIC [9] [µg/mL] | MIC [10] [µg/mL] | MIC [11] [µg/mL] | MIC [12] [µg/mL] | MIC [13] [µg/mL] | MIC [14] [µg/mL] | MIC [15] [µg/mL] |
| --- | --- | --- | --- | --- | --- | --- | --- | --- | --- | --- | --- | --- | --- | --- | --- |
| Cc1ccc2nc(-c3cn([C@H]4C[C@H](O)[C@@H](CO)O4)c(=O)[nH]c3=O)[nH]c2c1 | inactive | > 64 | > 64 | > 64 | > 64 | > 64 | > 64 | > 64 | > 64 | > 64 | > 64 | > 64 | > 64 | > 64 |  |
| O=c1[nH]c(=O)n([C@H]2C[C@H](O)[C@@H](CO)O2)cc1-c1nc2cc(C(F)(F)F)cc(Cl)c2[nH]1 | inactive | > 64 | > 64 | 16 | > 64 | 4 (≈ 8.95 µM) | 1 (≈ 2.24 µM) | 4 (≈ 8.95 µM) | 2 (≈ 4.48 µM) | 2 (≈ 4.48 µM) | > 64 | 2 (≈ 4.48 µM) | > 64 | 2 (≈ 4.48 µM) | 2 (≈ 4.48 µM) |
| O=c1[nH]c(=O)n([C@H]2C[C@H](O)[C@@H](CO)O2)cc1-c1nc2ccc(F)cc2[nH]1 | inactive | > 64 | > 64 | > 64 | > 64 | > 64 | > 64 | > 64 | > 64 | > 64 | > 64 | > 64 | > 64 | > 64 |  |
| O=C(O)c1cn(C2CC2)c2cc(N3CCNCC3)c(F)cc2c1=O [CIPROFLOXACIN] |  |  | ≤ 0.03 |  | ≤ 0.03 |  | 16 (≈ 48.3 µM) | 1 (≈ 3.02 µM) | 0.5 (≈ 1.51 µM) | 0.12 (≈ 0.362 µM) | 0.5 | 0.25 (≈ 0.754 µM) | 0.25 | 0.12 (≈ 0.362 µM) | 8 (≈ 24.1 µM) |
| COc1ccc2nc(-c3cn([C@H]4C[C@H](O)[C@@H](CO)O4)c(=O)[nH]c3=O)[nH]c2c1 | inactive | > 64 | > 64 | > 64 | > 64 | > 64 | > 64 | > 64 | > 64 | > 64 | > 64 | > 64 | > 64 | > 64 |  |
| O=c1[nH]c(=O)n([C@H]2C[C@H](O)[C@@H](CO)O2)cc1-c1nc2cc3ccccc3cc2[nH]1 | inactive | > 64 | > 64 | > 64 | > 64 | > 64 | > 64 | > 64 | > 64 | > 64 | > 64 | > 64 | > 64 | > 64 |  |
| O=c1[nH]c(=O)n([C@H]2C[C@H](O)[C@@H](CO)O2)cc1-c1nc2ccccc2[nH]1 | inactive | > 64 | > 64 | > 64 | > 64 | > 64 | > 64 | > 64 | > 64 | > 64 | > 64 | > 64 | > 64 | > 64 |  |
| O=c1[nH]c(=O)n([C@H]2C[C@H](O)[C@@H](CO)O2)cc1-c1nc2c3ccccc3c3ccccc3c2[nH]1 | inactive | > 64 | > 64 | > 64 | > 64 | > 64 | > 64 | > 64 | > 64 | > 64 | > 64 | > 64 | > 64 | > 64 |  |
| CC(=O)NC[C@H]1CN(c2ccc(N3CCOCC3)c(F)c2)C(=O)O1 [LINEZOLID] |  | > 32 | > 32 | 0.25 | 16 (≈ 47.4 µM) |  | 0.5 (≈ 1.48 µM) |  |  | 1 (≈ 2.96 µM) |  | 1 (≈ 2.96 µM) | 1 | 1 (≈ 2.96 µM) | 1 (≈ 2.96 µM) |
| O=c1[nH]c(=O)n([C@H]2C[C@H](O)[C@@H](CO)O2)cc1-c1nc2ccc(C(F)(F)F)cc2[nH]1 | inactive | > 64 | > 64 | 64 | 4 (≈ 9.7 µM) | 32 (≈ 77.6 µM) | 64 (≈ 155 µM) | 64 (≈ 155 µM) | > 64 | > 64 | > 64 | > 64 | > 64 | > 64 |  |

From ChEMBL document CHEMBL1933053, “Efficient microwave-assisted synthesis, antibacterial activity and high fluorescence of 5 benzimidazolyl-2'-deoxyuridines” (2012)
